According to patent publication US20080234188A1, “Antimicrobial Peptides” (The Hospital for Sick Children, priority 2001, published 2008):
Values after ≈ are worked out from the molar mass of the structure shown. Where a SMILES comes first, the peptide text is derived from it. [ ]: non-standard residue; d: D form.

Legend:
P. aeruginosa ATCC27853 = assay type: cell-based, Pseudomonas aeruginosa
Text: (§1) The bacterial strains used were E. coli C498, E. coli C500, Escherichia coli UB1005 and its antibiotic supersusceptible derivative DC2 (22); a clinical isolate of Staphylococcus epidermidis (C621); coryneform bacterial strain Corynebacterium xerosis (C875); and E. coli ATCC 25922, Staphylococcus aureus ATCC 25923, Enterococcus faecalis ATCC 29212, Bacillus subtilis ATCC 6633 and Pseudomonas aeruginosa ATCC 27853, all from American Type Culture Collection.
(§2) Peptide antibacterial activity was assessed by the method of R. Hancock et al. (Wu & Hancock (1999), J. Biol. Chem., v. 274, pp. 29-35). Test strains of bacteria from Mueller Hinton agar (MHA) plates were inoculated into 5 ml Mueller Hinton Broth (MHB) in tubes and grown overnight at 37° C. on a shaker (180 rpm). Serial dilutions of test peptides (at 10 times the required test concentrations) were made in 0.01% acetic acid, 0.2% BSA, in polypropylene or coated glass tubes as follows: the test peptide was (a) dissolved in distilled water at 20 times the required maximum concentration (enough final volume for all tests to be performed on a given day); (b) diluted into an equal volume of 0.02% acetic acid, 0.4% BSA to give 10 times the required maximum concentration; (c) serial doubling dilutions were performed in 0.01% acetic acid, 0.2% BSA to provide serial dilutions of peptides at 10 times the required test concentrations, e.g., 640, 320, 160, . . . 2.5 μg/ml. (No deleterious effects of long-term storage of peptides in these media have been detected). Overnight bacterial cultures were diluted in MHB to give 2−7×10^5 colony forming units/ml. Bacterial suspension (100 μl) was dispensed in each well; controls without bacteria were maintained in parallel. To each well was added 11 μl of 10× test peptide and plates were incubated at 37° C. for 18-24 hours, and checked again at 40-48 hours. Plates were read visually and at 600 nm in a microplate reader (Molecular Devices).
(§3) A further number of the peptides of the invention were tested for antimicrobial activity against a range of Gram-positive and Gram-negative bacteria by the assay described immediately before Example 1.

E. coli ATCC25922 = assay type: cell-based
Text: as §1, §2, §3

E. faecalis ATCC29212 = assay type: cell-based, Enterococcus faecalis
Text: as §1, §2, §3

S. aureus ATCC25923 = assay type: cell-based, Staphylococcus aureus
Text: as §1, §2, §3

B. subtilis ATCC6633 = assay type: cell-based, Bacillus subtilis
Text: as §1, §2, §3

E. coli UB1005 = assay type: cell-based, Escherichia coli; settings: UB1005
Procedure, shortened: (§4)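 Broth microdilution in Mueller Hinton broth, 2−7×10^5 CFU/ml, peptides serially doubled in 0.01% acetic acid/0.2% BSA. Incubation 37° C for 18-24 h, rechecked at 40-48 h; MIC read visually and at 600 nm.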

[1] = system: Staphylococcus epidermidis (C621); assay type: cell-based; settings: C621
Procedure, shortened: (§5)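 Broth microdilution in Mueller Hinton Broth, inoculum 2−7×10^5 CFU/ml. Peptides serially doubled in 0.01% acetic acid, 0.2% BSA and added at 10× final concentration. Incubation 37° C for 18-24 h, rechecked at 40-48 h; growth read visually and at 600 nm.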

Rabbit RBC = assay type: cell-based
Experimental: (§6) Erythrocytes from heparinized rabbit or human blood were washed three times with phosphate-buffered saline (PBS; 5 mM phosphate buffer, 0.14 M saline, pH 7.3), and centrifuged at 1000×g for 15 min at 4° C. The erythrocytes were diluted with PBS to 4% (v/v). Dilutions of the peptides in PBS were plated in 100 μl volumes in microtitre plates (Costar 3790, polypropylene) together with 100μl of the erythrocyte suspension. PBS was used as control and 100% lysis was determined in 0.1% Triton X-100. The plates were incubated at 37° C. for 1 h and then centrifuged at 1000×g for 5 min. 100 μl aliquots of the supernatant were transferred to microtitre plates (Nunc, polystyrene), and the release of hemoglobin was monitored by measurement of the absorbance at 540 nm in a microplate reader. The results are shown in Table 6, for peptide concentrations of […]. With only one or two exceptions, little or no hemolysis was seen.

Human RBC = assay type: cell-based
Experimental: as §6

E. coli DC2 = assay: Assay of antibacterial activity (MIC), E. coli DC2; assay type: cell-based, Escherichia coli; settings: Table 5A
Procedure, shortened: as §4

[2] = system: Corynebacterium xerosis (C875); assay type: cell-based
Procedure, shortened: as §5

Structure (SMILES)	MIC P. aeruginosa ATCC27853 (P. aeruginosa ATCC27853) [µM]	MIC E. coli ATCC25922 (E. coli ATCC25922) [µM]	MIC E. faecalis ATCC29212 (E. faecalis ATCC29212) [µM]	MIC S. aureus ATCC25923 (S. aureus ATCC25923) [µM]	MIC B. subtilis ATCC6633 (B. subtilis ATCC6633) [µM]	MIC E. coli UB1005 (E. coli UB1005) [µM]	MIC S. epidermidis C621 [1] [µM]	Rabbit RBC (% lysis) 50 μM (Rabbit RBC) [% lysis]	Rabbit RBC (% lysis) 200 μM (Rabbit RBC) [% lysis]	Human RBC (% lysis) 50 μM (Human RBC) [% lysis]	Human RBC (% lysis) 200 μM (Human RBC) [% lysis]	MIC E. coli DC2 (E. coli DC2) [µM]	MIC C. xerosis C875 [2] [µM]
C[C@@H](NC(=O)[C@@H](C)NC(=O)[C@@H](Cc1ccccc1)NC(=O)[C@@H](C)NC(=O)[C@@H](C)NC(=O)[C@@H](Cc1c[nH]c2ccccc12)NC(=O)[C@@H](C)NC(=O)[C@@H](C)NC(=O)[C@@H](Cc1ccccc1)NC(=O)[C@@H](C)NC(=O)[C@@H](C)NC(=O)[C@@H](CCCCN)NC(=O)[C@@H](CCCCN)NC(=O)[C@@H](CCCCN)NC(=O)[C@@H](CCCCN)NC(=O)[C@@H](CCCCN)NC(=O)[C@H](N)CCCCN)C(N)=O [A11-D F17-6K, kkkkkkaafaawaafaa-NH2] (H-[dK][dK][dK][dK][dK][dK][dA][dA][dF][dA][dA][dW][dA][dA][dF][dA][dA]-NH2)	8 (≈ 14.7 µg/mL)	2 (≈ 3.67 µg/mL)	>32	32 (≈ 58.7 µg/mL)	4 (≈ 7.34 µg/mL)	0.5 (≈ 0.918 µg/mL)	4 (≈ 7.34 µg/mL)	0	2	0	0	–	–
C[C@H](NC(=O)[C@H](C)NC(=O)[C@H](C)NC(=O)[C@H](Cc1c[nH]c2ccccc12)NC(=O)[C@H](Cc1ccccc1)NC(=O)[C@H](C)NC(=O)[C@H](C)NC(=O)[C@H](C)NC(=O)[C@H](C)NC(=O)[C@H](CCCCN)NC(=O)[C@H](CCCCN)NC(=O)[C@H](CCCCN)NC(=O)[C@H](CCCCN)NC(=O)[C@H](CCCCN)NC(=O)[C@@H](N)CCCCN)C(=O)N[C@@H](C)C(=O)N[C@@H](Cc1ccccc1)C(N)=O [KAFW, KKKKKKAAAAFWAAAAF-NH2] (H-KKKKKKAAAAFWAAAAF-NH2; N-terminus assumed)	16 (≈ 29.4 µg/mL)	16 (≈ 29.4 µg/mL)	–	–	–	2 (≈ 3.67 µg/mL)	8 (≈ 14.7 µg/mL)	0	1	0	0	0.5 (≈ 0.918 µg/mL)	0.5 (≈ 0.918 µg/mL)
C[C@H](NC(=O)[C@H](C)NC(=O)[C@H](Cc1ccccc1)NC(=O)[C@H](C)NC(=O)[C@H](C)NC(=O)[C@H](Cc1ccccc1)NC(=O)[C@H](C)NC(=O)[C@H](C)NC(=O)[C@H](Cc1ccccc1)NC(=O)[C@H](C)NC(=O)[C@H](C)NC(=O)[C@H](CCCCN)NC(=O)[C@H](CCCCN)NC(=O)[C@H](CCCCN)NC(=O)[C@H](CCCCN)NC(=O)[C@H](CCCCN)NC(=O)[C@@H](N)CCCCN)C(N)=O [Peptide 3F17-6K, KKKKKKAAFAAFAAFAA-NH2] (H-KKKKKKAAFAAFAAFAA-NH2; N-terminus assumed)	16 (≈ 28.7 µg/mL)	16 (≈ 28.7 µg/mL)	>32	>32	16 (≈ 28.7 µg/mL)	2 (≈ 3.59 µg/mL)	8 (≈ 14.4 µg/mL)	0	2	0	0	–	–
C[C@H](NC(=O)[C@H](C)NC(=O)[C@H](Cc1ccccc1)NC(=O)[C@H](C)NC(=O)[C@H](C)NC(=O)[C@H](Cc1c[nH]c2ccccc12)NC(=O)[C@H](C)NC(=O)[C@H](C)NC(=O)[C@H](Cc1ccccc1)NC(=O)[C@H](C)NC(=O)[C@H](C)NC(=O)[C@H](CCCNC(=N)N)NC(=O)[C@H](CCCNC(=N)N)NC(=O)[C@H](CCCNC(=N)N)NC(=O)[C@H](CCCNC(=N)N)NC(=O)[C@H](CCCNC(=N)N)NC(=O)[C@@H](N)CCCNC(=N)N)C(N)=O [Peptide F17-6R, RRRRRRAAFAAWAAFAA-NH2] (H-RRRRRRAAFAAWAAFAA-NH2; N-terminus assumed)	8 (≈ 16 µg/mL)	4 (≈ 8.01 µg/mL)	–	–	–	1 (≈ 2 µg/mL)	4 (≈ 8.01 µg/mL)	1	3	14	26	0.5 (≈ 1 µg/mL)	0.5 (≈ 1 µg/mL)
C[C@H](NC(=O)[C@H](C)NC(=O)[C@H](C)NC(=O)[C@H](Cc1ccccc1)NC(=O)[C@H](C)NC(=O)[C@H](C)NC(=O)[C@H](Cc1c[nH]c2ccccc12)NC(=O)[C@H](C)NC(=O)[C@H](C)NC(=O)[C@H](Cc1ccccc1)NC(=O)[C@H](C)NC(=O)[C@H](C)NC(=O)[C@H](C)NC(=O)[C@H](C)NC(=O)[C@H](C)NC(=O)[C@H](Cc1ccccc1)NC(=O)[C@H](C)NC(=O)[C@H](C)NC(=O)[C@H](C)NC(=O)[C@H](CCCCN)NC(=O)[C@H](CCCCN)NC(=O)[C@H](CCCCN)NC(=O)[C@H](CCCCN)NC(=O)[C@H](CCCCN)NC(=O)[C@@H](N)CCCCN)C(N)=O [Peptide F25-6K] (H-KKKKKKAAAFAAAAAFAAWAAFAAA-NH2; N-terminus assumed)	32 (≈ 79.4 µg/mL)	16 (≈ 39.7 µg/mL)	–	–	–	16 (≈ 39.7 µg/mL)	4 (≈ 9.92 µg/mL)	–	–	11	17	8 (≈ 19.8 µg/mL)	1 (≈ 2.48 µg/mL)
C[C@H](NC(=O)[C@H](C)NC(=O)[C@H](Cc1c[nH]c2ccccc12)NC(=O)[C@H](C)NC(=O)[C@H](C)NC(=O)[C@H](Cc1c[nH]c2ccccc12)NC(=O)[C@H](C)NC(=O)[C@H](C)NC(=O)[C@H](Cc1c[nH]c2ccccc12)NC(=O)[C@H](C)NC(=O)[C@H](C)NC(=O)[C@H](CCCCN)NC(=O)[C@H](CCCCN)NC(=O)[C@H](CCCCN)NC(=O)[C@H](CCCCN)NC(=O)[C@H](CCCCN)NC(=O)[C@@H](N)CCCCN)C(N)=O [Peptide W17-6K, KKKKKKAAWAAWAAWAA-NH2] (H-KKKKKKAAWAAWAAWAA-NH2; N-terminus assumed)	8 (≈ 15.3 µg/mL)	8 (≈ 15.3 µg/mL)	>32	32 (≈ 61.2 µg/mL)	4 (≈ 7.65 µg/mL)	1 (≈ 1.91 µg/mL)	8 (≈ 15.3 µg/mL)	0	2	0	0	–	–
